Publication PMC6956259, “Mechanistic Evaluation of Enhanced Curcumin Delivery through Human Skin In Vitro from Optimised Nanoemulsion Formulations Fabricated with Different Penetration Enhancers” (Pharmaceutics, 2019)
Like-named read-outs stand apart in the source and are kept apart here.

Assays:
[1] = Stability of curcumin in the receptor medium; type: physicochemical; conditions: 6% Volpo in water, 35 °C, at 0, 1, 6, 12 and 24 h
Description: Standard solutions of curcumin (5, 10, 12.5 and 25 µg/mL) were prepared in a 6% Volpo aqueous solution and stored at 35 ± 0.5 °C for 24 h. Samples removed at 1, 6, 12 and 24 h were assayed for drug content by HPLC.

[2] = cited from earlier work

| SMILES | Amount of curcumin remaining [1] [%] | log P ([2]; no reference given) | log P [2] |
| --- | --- | --- | --- |
| COc1cc(/C=C/C(=O)CC(=O)/C=C/c2ccc(O)c(OC)c2)ccc1O [curcumin, Curcumin] | > 99 | 3.6 |  |
| CCCCOC(=O)c1ccc(O)cc1 [butyl paraben, reference compound] |  |  | 3.6 |
